Seven molecules from patent publication US20240197722A1, “ANTICANCER COMPOSITION INDUCING CELL SENESCENCE AND CELL DEATH” (OSTEONEUROGEN INC., priority 2021, published 2024) can be followed below.

The subject of data set [1] is PC3 cells. Kind of data set: Caspase-3/7 activity (apoptosis) in PC3 cells. It counts as cell-based, human. The note with it: PC3, Caspase-3/7 activity, various concentrations. As to the method: Caspase-3/7 activity was measured by using a Caspase-3/7 assay kit (Promega, G8091). […] Afterwards, Caspase-3/7 activity was analyzed according to the manufacturer's protocol.

For data set [2], the system named is Normal human lung fibroblasts (NHLF). Kind of data set: CCK-8 cell proliferation assay in normal human lung fibroblasts. The format is cell-based. Particulars: CCK-8, FIG. 19. For orientation: Formazan colour is commonly taken as a measure of viable cells.
In data set [3] the test system is NHLF cells. Kind of data set: Mitochondrial membrane potential (MTMP) analysis in NHLF. The format is cell-based, human. The note with it: for apoptosis in normal cells: measured with MTMP, Caspase3 and LDH, FIG. 20.
Data set [4] has as its system NHLF cells. Kind of data set: Caspase-3 activity assay in NHLF. It counts as cell-based. Particulars: Homo sapiens, read-out: Caspase3: EC 50. Here is the method:
(ii) Caspase-3 activity assay was measured by using a Caspase-3 assay kit (Abcam, ab37401). […] Thereafter, protein was measured with BCA (Thermo, 23227), and the protein was adjusted to 50 μg per 50 μL of cell lysis buffer. Afterwards, Caspase-3 activity was analyzed according to the manufacturer's protocol.

Data set [5] has as its system NHLF cells. Kind of data set: LDH cytotoxicity assay in NHLF. It counts as cell-based. The note with it: Homo sapiens, read-out: LDH: EC 50. As to the method: (iii) LDH cytotoxicity assay detected LDH release by using an LDH assay kit (Abcam, ab56393). […] Absorbance values were measured at 450 nm in a microplate reader.
In data set [6] the test system is A549 cells. The data set can be described thus: Immunocytochemistry for cell senescence morphology in A549 cells. Particulars: for effect of inducing cancer cell-specific cell senescence: summary of chromone scaffold derivatives, FIG. 21. It counts as cell-based. Here is the method:
The cells were incubated with Rhodamine Phalloidin (Thermo Fisher, Massachusetts, US) for 4 hours at room temperature. After washing, the cells were incubated with Alexa Fluor 488 (Abcam, Cambridge, UK)-conjugated secondary antibody. Images were analyzed by using EVOS M7000 (Invitrogen, CA, USA). Nuclei were counterstained with DAPI.

The test system of data set [7] is H358 cells. Kind of data set: CCK-8 cell proliferation assay in H358 cells. Particulars: H358, 30 μM or more, 72 hours. The format is cell-based. As to the method: H358 cells were seeded in 96-well plates at a concentration of 3×10^4 cells/well for 24 hours.
For data set [8], the system named is PANC1. The data set can be described thus: CCK-8 cell proliferation assay in PANC1 cells. The format is cell-based, human. Particulars: Homo sapiens, PANC-1; PANC1, CCK-8, 72 hours.

`O=C(CCCCCCC(=O)Nc1ccccc1)NO` [SAHA, suberoylanilide hydroxamic acid]: the PC3 apoptosis result in data set [1] is given as “induced PC3 apoptosis in a concentration-dependent manner”. The “cell proliferation of normal cells” value in data set [2] is on record as “inhibited cell proliferation”. In addition, the “apoptosis in normal cells” value in data set [3] is “induced strong apoptosis”.

Consider `COC(=O)c1ccc2c(c1)NC(=O)/C2=C(\Nc1ccc(N(C)C(=O)CN2CCN(C)CC2)cc1)c1ccccc1` [nintedanib], for which the “cell proliferation of normal cells” value in data set [2] is recorded as “inhibited cell proliferation”. Also, the IC50 in data set [3] (Homo sapiens, read-out: MTMP: IC 50) was 41 µM. Moreover, in data set [3], the “apoptosis in normal cells” value is given as “induced strong apoptosis”. Moreover, the EC50 in data set [4] is 128 µM; in data set [5], 218 µM.

Turning to `COc1ccc(-c2cc(=O)c3c(O)c(OC)c(O)cc3o2)cc1OC` [ONG21001, Eupatilin], the “cell flatness (morphological change of cell senescence)” value in data set [6] (A549, 20 μM each, 72 hours, FIG. 1) was “specifically observed”.

Take `O=c1cc(-c2ccc(O)cc2)oc2cc(O)cc(O)c12` [Apigenin]: in data set [6], the “effect of inducing cancer cell-specific cell senescence” value (shortened to “effect”) is listed as “does not induce”.

On to `COc1cc(-c2cc(=O)c3c(O)c(OC)c(O)cc3o2)ccc1O` [Jaceocidin, Jaceosidin], for which, in data set [6], the “effect” value is given as “do not exert any effect”.

`COc1c(O)cc2oc(-c3ccc(O)cc3)cc(=O)c2c1O` [Histidulin, Hispidulin]: the “effect” value in data set [6] is “do not exert any effect”.

With `CC(=O)O[C@H]1C(=O)[C@@]2(C)[C@H]([C@H](OC(=O)c3ccccc3)[C@]3(O)C[C@H](OC(=O)[C@H](O)[C@@H](NC(=O)c4ccccc4)c4ccccc4)C(C)=C1C3(C)C)[C@]1(OC(C)=O)CO[C@@H]1C[C@@H]2O` [paclitaxel, reference compound], in data set [7], the inhibition of proliferation result was “inhibited the proliferation of non-small cell lung cancer cells to a similar level”. Further, the IC50 in data set [8] turned out to be 84.7 µM.
